Laboratory results published in PubChem BioAssay (NCI).
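A five-concentration, 48-hour dose response in 96-well plates underlies each endpoint, interpolated linearly between surrounding concentrations. GI50: concentration for 50% inhibition of growth. TGI denotes the concentration required for complete inhibition of growth.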

Assays:
Assay in all cases: DTP human tumour cell line panel, 48 h
EKVX NSCLC = tested on: EKVX NSCLC
RPMI-8226 leukemia = tested on: RPMI-8226 leukemia
MCF7 breast = tested on: MCF7 breast
RXF 393 renal = tested on: RXF 393 renal
T-47D breast = tested on: T-47D breast
CCRF-CEM leukemia = tested on: CCRF-CEM leukemia
HOP-92 NSCLC = tested on: HOP-92 NSCLC
OVCAR-4 ovarian = tested on: OVCAR-4 ovarian
TK-10 renal = tested on: TK-10 renal
A498 renal = tested on: A498 renal
LOX IMVI melanoma = tested on: LOX IMVI melanoma
SF-295 CNS = tested on: SF-295 CNS
SK-MEL-2 melanoma = tested on: SK-MEL-2 melanoma
SN12C renal = tested on: SN12C renal
SK-MEL-28 melanoma = tested on: SK-MEL-28 melanoma
COLO 205 colon = tested on: COLO 205 colon
CAKI-1 renal = tested on: CAKI-1 renal
SR leukemia = tested on: SR leukemia
HCT-116 colon = tested on: HCT-116 colon
786-0 renal = tested on: 786-0 renal
HT29 colon = tested on: HT29 colon
KM12 colon = tested on: KM12 colon
DU-145 prostate = tested on: DU-145 prostate
OVCAR-5 ovarian = tested on: OVCAR-5 ovarian
SNB-19 CNS = tested on: SNB-19 CNS
SF-539 CNS = tested on: SF-539 CNS
UO-31 renal = tested on: UO-31 renal
OVCAR-3 ovarian = tested on: OVCAR-3 ovarian
SK-MEL-5 melanoma = tested on: SK-MEL-5 melanoma
SNB-75 CNS = tested on: SNB-75 CNS
MDA-MB-231 breast = tested on: MDA-MB-231 breast
SW-620 colon = tested on: SW-620 colon
HOP-62 NSCLC = tested on: HOP-62 NSCLC
NCI-H460 lung = tested on: NCI-H460 lung
MOLT-4 leukemia = tested on: MOLT-4 leukemia
HL-60(TB) leukemia = tested on: HL-60(TB) leukemia
HCT-15 colon = tested on: HCT-15 colon
ACHN renal = tested on: ACHN renal
MALME-3M melanoma = tested on: MALME-3M melanoma
NCI-H522 lung = tested on: NCI-H522 lung
HS 578T breast = tested on: HS 578T breast
K-562 leukemia = tested on: K-562 leukemia
U251 CNS = tested on: U251 CNS
IGROV1 ovarian = tested on: IGROV1 ovarian
NCI-H226 lung = tested on: NCI-H226 lung
NCI-H23 lung = tested on: NCI-H23 lung
SK-OV-3 ovarian = tested on: SK-OV-3 ovarian
OVCAR-8 ovarian = tested on: OVCAR-8 ovarian
SF-268 CNS = tested on: SF-268 CNS
MDA-MB-435 = tested on: MDA-MB-435
MDA-MB-468 breast = tested on: MDA-MB-468 breast
PC-3 prostate = tested on: PC-3 prostate
NCI/ADR-RES ovarian = tested on: NCI/ADR-RES ovarian
M14 melanoma = tested on: M14 melanoma
BT-549 breast = tested on: BT-549 breast
A549 NSCLC = tested on: A549 NSCLC
HCC-2998 colon = tested on: HCC-2998 colon
UACC-257 melanoma = tested on: UACC-257 melanoma
UACC-62 melanoma = tested on: UACC-62 melanoma

`CN1CCc2c(sc3ncnc(N/N=C/c4cn(-c5ccccc5)nc4-c4ccc(Cl)cc4)c23)C1` was tested, and the GI50 (EKVX NSCLC) was 313 nM, the TGI (EKVX NSCLC) was > 42600 nM and the GI50 (RPMI-8226 leukemia) was 443 nM. For the same molecule, the TGI (RPMI-8226 leukemia) was > 100000 nM, the GI50 (MCF7 breast) was 223 nM and the TGI (MCF7 breast) was 635 nM. For the same molecule, the GI50 (RXF 393 renal) was 3560 nM, the TGI (RXF 393 renal) was 34600 nM and the GI50 (T-47D breast) was 2590 nM. The TGI (T-47D breast) was > 100000 nM, the GI50 (CCRF-CEM leukemia) was 504 nM and the TGI (CCRF-CEM leukemia) was > 100000 nM. The GI50 (HOP-92 NSCLC) was 643 nM, the TGI (HOP-92 NSCLC) was 49600 nM and the GI50 (OVCAR-4 ovarian) was 462 nM. It also gave a TGI (OVCAR-4 ovarian) of 69900 nM, a GI50 (TK-10 renal) of 2470 nM and a TGI (TK-10 renal) of 38300 nM. The GI50 (A498 renal) was > 56700 nM, the TGI (A498 renal) was > 100000 nM and the GI50 (LOX IMVI melanoma) was 305 nM. For the same molecule, the TGI (LOX IMVI melanoma) was 4120 nM, the GI50 (SF-295 CNS) was 403 nM and the TGI (SF-295 CNS) was > 37700 nM. For the same molecule, the GI50 (SK-MEL-2 melanoma) was 990 nM, the TGI (SK-MEL-2 melanoma) was 24400 nM and the GI50 (SN12C renal) was 340 nM. The TGI (SN12C renal) was > 100000 nM, the GI50 (SK-MEL-28 melanoma) was 5560 nM and the TGI (SK-MEL-28 melanoma) was > 100000 nM. For the same molecule, the GI50 (COLO 205 colon) was 406 nM, the TGI (COLO 205 colon) was > 100000 nM and the GI50 (CAKI-1 renal) was 1320 nM. The TGI (CAKI-1 renal) was > 66700 nM, the GI50 (SR leukemia) was 2660 nM and the TGI (SR leukemia) was > 100000 nM. It also gave a GI50 (HCT-116 colon) of 115 nM, a GI50 (786-0 renal) of 588 nM and a TGI (786-0 renal) of 18000 nM. The GI50 (HT29 colon) was 442 nM, the TGI (HT29 colon) was 13900 nM and the GI50 (KM12 colon) was 496 nM. For the same molecule, the TGI (KM12 colon) was > 100000 nM, the GI50 (DU-145 prostate) was 1410 nM and the TGI (DU-145 prostate) was > 100000 nM. For the same molecule, the GI50 (OVCAR-5 ovarian) was 419 nM, the TGI (OVCAR-5 ovarian) was > 100000 nM and the GI50 (SNB-19 CNS) was 3280 nM. The TGI (SNB-19 CNS) was > 57300 nM, the GI50 (SF-539 CNS) was 345 nM and the TGI (SF-539 CNS) was 10700 nM. It also gave a GI50 (UO-31 renal) of 475 nM, a TGI (UO-31 renal) of 25400 nM and a GI50 (OVCAR-3 ovarian) of 242 nM. The TGI (OVCAR-3 ovarian) was 6220 nM, the GI50 (SK-MEL-5 melanoma) was 544 nM and the TGI (SK-MEL-5 melanoma) was 20500 nM. It also gave a GI50 (SNB-75 CNS) of 13800 nM, a TGI (SNB-75 CNS) of 60800 nM and a GI50 (MDA-MB-231 breast) of 468 nM. The TGI (MDA-MB-231 breast) was 32000 nM, the GI50 (SW-620 colon) was 387 nM and the TGI (SW-620 colon) was > 100000 nM. The GI50 (HOP-62 NSCLC) was 724 nM, the TGI (HOP-62 NSCLC) was > 84300 nM and the GI50 (NCI-H460 lung) was 390 nM. The TGI (NCI-H460 lung) was 30000 nM, the GI50 (MOLT-4 leukemia) was 319 nM and the TGI (MOLT-4 leukemia) was > 100000 nM. For the same molecule, the GI50 (HL-60(TB) leukemia) was 292 nM, the TGI (HL-60(TB) leukemia) was 1980 nM and the GI50 (HCT-15 colon) was 390 nM. The TGI (HCT-15 colon) was > 100000 nM, the GI50 (ACHN renal) was 481 nM and the TGI (ACHN renal) was 20400 nM. For the same molecule, the GI50 (MALME-3M melanoma) was 999 nM, the TGI (MALME-3M melanoma) was > 100000 nM and the GI50 (NCI-H522 lung) was 323 nM. The TGI (NCI-H522 lung) was 5380 nM, the GI50 (HS 578T breast) was 15600 nM and the TGI (HS 578T breast) was > 89700 nM. The GI50 (K-562 leukemia) was 290 nM, the TGI (K-562 leukemia) was > 100000 nM and the GI50 (U251 CNS) was 688 nM. For the same molecule, the TGI (U251 CNS) was > 54100 nM, the GI50 (IGROV1 ovarian) was 379 nM and the TGI (IGROV1 ovarian) was 21100 nM. The GI50 (NCI-H226 lung) was 1190 nM, the TGI (NCI-H226 lung) was > 65900 nM and the GI50 (NCI-H23 lung) was 326 nM. The TGI (NCI-H23 lung) was 10800 nM, the GI50 (SK-OV-3 ovarian) was > 36200 nM and the TGI (SK-OV-3 ovarian) was > 76100 nM. For the same molecule, the GI50 (OVCAR-8 ovarian) was 368 nM, the TGI (OVCAR-8 ovarian) was > 38500 nM and the GI50 (SF-268 CNS) was 678 nM. For the same molecule, the TGI (SF-268 CNS) was > 100000 nM, the GI50 (MDA-MB-435) was 1610 nM and the TGI (MDA-MB-435) was > 100000 nM. For the same molecule, the GI50 (MDA-MB-468 breast) was 208 nM, the TGI (MDA-MB-468 breast) was 595 nM and the GI50 (PC-3 prostate) was 472 nM. The TGI (PC-3 prostate) was > 100000 nM, the GI50 (NCI/ADR-RES ovarian) was 320 nM and the TGI (NCI/ADR-RES ovarian) was 1760 nM. The GI50 (M14 melanoma) was 598 nM, the TGI (M14 melanoma) was > 38700 nM and the GI50 (BT-549 breast) was 2890 nM. The TGI (BT-549 breast) was > 31800 nM, the GI50 (A549 NSCLC) was 496 nM and the TGI (A549 NSCLC) was > 100000 nM. For the same molecule, the GI50 (HCC-2998 colon) was 500 nM, the TGI (HCC-2998 colon) was 34800 nM and the GI50 (UACC-257 melanoma) was 473 nM. For the same molecule, the TGI (UACC-257 melanoma) was > 100000 nM, the GI50 (UACC-62 melanoma) was 787 nM and the TGI (UACC-62 melanoma) was 14400 nM.
